Literature values in US4703106A, “Novel polypeptide and process for producing the same” (Mitsubishi Petrochemical Co., Ltd., priority 1984, dated 1987).
Positions of bridges follow the written chain, without caps; N, C: chain ends. No end group written: not given here.

Tested on: Ca^2+ concentration in blood
Conditions: published as Japanese Provisional Patent Publication No. 123500/1985

In the case of “chicken CT: calcitonin extracted and purified from the ultimobranchial glands of chickens, formula (I) (CASLSTCVLGKLSQELHKLQTYPRTDVGAGTP-NH2; disulfide 1-7; ends not checked; UniProt P07660 82-113, looked up)”, the “biological activity relative to CT's of cyclostomata and fish” value is given as “equal to or higher than CT's of cyclostomata and fish”.
